16 compounds from PubChem BioAssay (NCI) can be followed below.

Each structure is given as a SMILES string. Values joined by “and” are separate entries in the source; they are usually repeats but may differ in a detail not shown here. Identical values can stand only once.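 Values below derive from 48-hour exposures of cells grown in 96-well plates, with endpoints linearly interpolated between the two concentrations bracketing the appropriate inhibition level. Here, GI50 denotes the concentration required for 50% inhibition of growth. TGI: concentration producing complete growth inhibition.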 Bounds are passed on as bounds.

Test systems include DMS 114 small cell lung; LOX IMVI melanoma; SN12C renal; CCRF-CEM leukemia; RPMI-8226 leukemia; SNB-78 CNS; MOLT-4 leukemia; KM20L2 colon; OVCAR-5 ovarian; HS 578T breast.
Holding throughout (experiment): DTP human tumour cell line panel, 48 h

What is called TGI is the concentration at which net growth stops. The low end stands for greater sensitivity of the cells, the high end for lower sensitivity of the cells. For the compound `CCc1ccccc1NC(=O)/C(N=O)=C(/C)O`, the TGI in the assay with DMS 114 small cell lung, in the assay on LOX IMVI melanoma, in the assay on SN12C renal, in the assay on CCRF-CEM leukemia, with RPMI-8226 leukemia and in the assay on SNB-78 CNS was > 100 µM each time. The TGI in the assay on MOLT-4 leukemia and in the assay on KM20L2 colon was > 100 µM throughout.

`COc1cccc(NC(=O)CC(=O)N2N=C(n3ccc4ccccc43)CC2c2ccccc2)c1` (centres undefined): the TGI in the assay on DMS 114 small cell lung, in the assay on LOX IMVI melanoma, in the assay with SN12C renal, in the assay with CCRF-CEM leukemia, in the assay with RPMI-8226 leukemia and in the assay with OVCAR-5 ovarian was > 100 µM each time. Besides, the TGI in the assay on SNB-78 CNS, in the assay with MOLT-4 leukemia and in the assay on KM20L2 colon was > 100 µM throughout.

`N#CNC(=NCCc1c[nH]c2ccccc12)Oc1ccccc1`: the total growth inhibition concentration (TGI) in the assay on DMS 114 small cell lung, in the assay with LOX IMVI melanoma, with SN12C renal, with CCRF-CEM leukemia, with RPMI-8226 leukemia and in the assay on OVCAR-5 ovarian was > 100 µM throughout. In addition, the TGI was > 100 µM in the assay on SNB-78 CNS, > 100 µM in the assay with MOLT-4 leukemia and 49.8 µM with KM20L2 colon.

Regarding `NC(=O)NC12CC3CC(CC(F)(C3)C1)C2`, the TGI with DMS 114 small cell lung, in the assay with LOX IMVI melanoma, with CCRF-CEM leukemia, in the assay with RPMI-8226 leukemia, in the assay on OVCAR-5 ovarian and in the assay on SNB-78 CNS was > 100 µM each time. For the same compound, the TGI with MOLT-4 leukemia and in the assay on KM20L2 colon was > 100 µM throughout.

As to `O=C1c2ccccc2N2Oc3ccccc3C12c1ccccc1` (centres undefined), the total growth inhibition concentration (TGI) in the assay on DMS 114 small cell lung, with SN12C renal, with CCRF-CEM leukemia, in the assay with RPMI-8226 leukemia, in the assay with SNB-78 CNS and with MOLT-4 leukemia was > 100 µM in each case. In the assay on KM20L2 colon, the TGI is > 100 µM.

One may read the GI50 as the concentration giving 50% growth inhibition. For `COc1cc(C2c3cc4c(cc3[C@@H](NCCN3CCOCC3)C3COC(=O)[C@H]23)OCO4)cc(OC)c1O` (some centres undefined), the GI50 in the assay with DMS 114 small cell lung was 1.43 µM and 2.95 µM; in the assay on SN12C renal, 0.764 µM and 2.13 µM; in the assay on RPMI-8226 leukemia, 0.855 µM and 1.81 µM; with MOLT-4 leukemia, 0.137 µM and 0.402 µM. In addition, the TGI in the assay on DMS 114 small cell lung is 5.05 µM and 8.98 µM; with LOX IMVI melanoma, 7.95 µM and 5.02 µM; in the assay on SN12C renal, 4.06 µM and 7.9 µM; with CCRF-CEM leukemia, > 75 µM; with RPMI-8226 leukemia it was 6.58 µM and 9.59 µM; in the assay on SNB-78 CNS, > 75 µM. The TGI was 4.48 µM and 4.87 µM in the assay with MOLT-4 leukemia; 16.7 µM and > 17.5 µM in the assay with KM20L2 colon.

Regarding `CCc1cccc(C)c1NC(=O)C1=C(C)NC(C)=C(C(=O)Nc2c(C)cccc2CC)C1c1ccc2c(c1)OCO2`, the TGI in the assay on DMS 114 small cell lung stood at 38.7 µM; in the assay with LOX IMVI melanoma, 42.5 µM; in the assay on SN12C renal it was 42.6 µM; with CCRF-CEM leukemia, 51.2 µM; in the assay with RPMI-8226 leukemia, 47.2 µM; in the assay with OVCAR-5 ovarian, 44.5 µM. In addition, the total growth inhibition concentration (TGI) in the assay on SNB-78 CNS was > 100 µM; in the assay with MOLT-4 leukemia, 72.8 µM; in the assay with KM20L2 colon it was 62.8 µM.

With `CC(Oc1ccc(OCC2CCCCC2)cc1)C(=O)NCc1ccco1` (centres undefined), the TGI with DMS 114 small cell lung is 56.6 µM; in the assay with LOX IMVI melanoma, 54.3 µM; in the assay with SN12C renal it was > 100 µM; in the assay on CCRF-CEM leukemia, > 100 µM; in the assay with SNB-78 CNS, > 100 µM; in the assay with MOLT-4 leukemia, > 100 µM.

For the compound `CCOc1ccc(NC(=O)C(=O)C(C(=O)c2ccc3ccccc3c2)C2OC(=O)c3ccccc32)cc1` (centres undefined), the TGI in the assay with DMS 114 small cell lung came to 89.7 µM; in the assay on LOX IMVI melanoma, 33.2 µM; in the assay with SN12C renal it was 44 µM; in the assay with CCRF-CEM leukemia it was 57.7 µM; in the assay with RPMI-8226 leukemia, 38.4 µM; with OVCAR-5 ovarian it was 84.9 µM. Also, the concentration for total growth inhibition (TGI) with SNB-78 CNS was 64.9 µM; in the assay on MOLT-4 leukemia, 43.7 µM; with KM20L2 colon it was > 100 µM.

As for `COc1ccc(CC2(Cc3ccc(OC)cc3)CCOC2=O)cc1`, the TGI with DMS 114 small cell lung, in the assay on SN12C renal, in the assay on CCRF-CEM leukemia, in the assay on RPMI-8226 leukemia, in the assay on OVCAR-5 ovarian and in the assay with MOLT-4 leukemia was > 100 µM in each case.

Regarding `COc1cc2c(cc1OC)[C@@H](Nc1ccc(F)cc1)C1COC(=O)[C@@H]1C2c1cc(OC)c(O)c(OC)c1` (some centres undefined), the TGI is 10.4 µM in the assay with DMS 114 small cell lung; > 43.4 µM in the assay on LOX IMVI melanoma; 13.7 µM in the assay on SN12C renal; 0.846 µM in the assay with CCRF-CEM leukemia; 2.45 µM in the assay on RPMI-8226 leukemia; > 100 µM with OVCAR-5 ovarian. In addition, the figures for the TGI with SNB-78 CNS, with MOLT-4 leukemia and in the assay on KM20L2 colon were 97.5 µM, 0.21 µM and > 54.2 µM, respectively.

For `O=C1C(c2cnc3ccccc3n2)=C(O)c2ccccc21`, the TGI in the assay on DMS 114 small cell lung was > 100 µM; in the assay with LOX IMVI melanoma it was > 61.5 µM; in the assay on HS 578T breast, > 100 µM; in the assay with SN12C renal it was > 100 µM; in the assay on CCRF-CEM leukemia, > 100 µM; in the assay with RPMI-8226 leukemia, > 100 µM. The TGI in the assay on OVCAR-5 ovarian, in the assay on SNB-78 CNS, with MOLT-4 leukemia and in the assay on KM20L2 colon was > 100 µM in each case.

Consider `CCN(CC)c1oc(N(CC)CC)c(C(=O)Nc2ccccn2)c(=O)c1C(C)=O`, for which the TGI with DMS 114 small cell lung, in the assay on SN12C renal, in the assay on CCRF-CEM leukemia, in the assay on RPMI-8226 leukemia, with OVCAR-5 ovarian and with SNB-78 CNS was > 100 µM throughout. The TGI with MOLT-4 leukemia was > 100 µM.

For the compound `COc1ccc2nc3cc(Cl)ccc3c(SCC(=O)Nc3ccccc3-c3ccccc3NC(=O)CSc3c4ccc(Cl)cc4nc4ccc(OC)cc34)c2c1`, the TGI in the assay with DMS 114 small cell lung, in the assay with LOX IMVI melanoma, in the assay on SN12C renal, with CCRF-CEM leukemia, in the assay on RPMI-8226 leukemia and in the assay on OVCAR-5 ovarian was > 100 µM each time. Further, the TGI in the assay with SNB-78 CNS, in the assay with MOLT-4 leukemia and with KM20L2 colon was > 100 µM throughout.

In the case of `COC1=C(C)C(=O)c2c(cc3c(c2O)C(C)(CCC=C(C)C)C(C)O3)C1=O` (centres undefined), the TGI is > 100 µM with DMS 114 small cell lung; > 100 µM in the assay on LOX IMVI melanoma; > 61.8 µM in the assay with SN12C renal; > 100 µM in the assay on CCRF-CEM leukemia; > 100 µM with RPMI-8226 leukemia; > 100 µM in the assay with OVCAR-5 ovarian. Besides, the TGI in the assay with SNB-78 CNS, in the assay with MOLT-4 leukemia and in the assay with KM20L2 colon was > 100 µM each time.

As to `CC(=O)O[C@H]1CCC2[C@@H]3CCC4c5nonc5CC[C@]4(C)C3CC[C@@]21C` (some centres undefined), the GI50 with DMS 114 small cell lung, with CCRF-CEM leukemia, in the assay with OVCAR-5 ovarian and in the assay with SNB-78 CNS was > 100 µM throughout. In addition, the TGI in the assay on DMS 114 small cell lung was > 100 µM; with LOX IMVI melanoma, > 10 µM; with SN12C renal, > 10 µM; in the assay with CCRF-CEM leukemia it was > 100 µM; in the assay on OVCAR-5 ovarian, > 100 µM; in the assay with SNB-78 CNS, > 100 µM. The TGI in the assay with MOLT-4 leukemia and with KM20L2 colon was > 10 µM each time.
